Key:
3×Tg mice = experiment: Novel object recognition test; format: in vivo, mouse; settings: vs sham
Description: All experiments were carried out in accordance with the National Institutes of Health Guidelines for animal research (Guide for the Care and Use of Laboratory Animal) and approved by the National Cheng Kung University Institutional Animal Care and Use Committee. The 3×Tg mice (B6; 129-Psen1tm1Mpm Tg[APPSwe, tauP301L]1Lfa/Mmjax), were obtained from the Jackson Laboratory (Bar Harbor, […], USA) and housed in a controlled room (temperature 23±1° C., humidity 55±5%, 12-hour light/12-hour dark cycle, light cycle begins at 06:00) located in the Laboratory Animal Center of National Cheng Kung University (Tainan, Taiwan) with unrestricted access to food and water. All mice were genotyped using a protocol provided by the Jackson Laboratory. The 3×Tg mice develop intracellular Aβ immuno-positive staining as early as 3-4 months and aggregates of hyperphosphorylated tau in the hippocampus around 12 months of age. Impaired synaptic transmission and long-term potentiation are evident about 6 months of age. At the age of 10 months (body weight, 31˜35 g), five 3×Tg mice received four consecutive weekly injections of Zfra4-10 solution (2 mM in phosphate buffered saline [PBS], 100 μL each injection) from the tail veins. […]
The experiment was performed from 6 PM each day. […] The cumulative times spent by the mouse in exploring each of the objects were recorded during a 5-minute period. […] The times spent in exploring each object during a 5-minute period were recorded in either the STM or the LTM test. […]
All experimental results were represented as mean±standard error of the mean. The results for novel object recognition test, probe test of Morris water maze, relative ventricle area, and relative optical density of pS412-tau immunoreactivity were analyzed by two-tailed Mann-Whitney test, whereas the Aβ-positive cell number was analyzed by two-tailed unpaired t-test. The Morris water maze learning section results were analyzed using a repeated mixed-model analysis of variance with training session as within-subject factor and the Zfra injection as between-subject factor. […]

[1] = system: pyramidal neurons in the hippocampi; experiment: Melanoma B16F10-induced neurodegeneration in nude mice; format: in vivo, mouse; settings: hippocampi of nude mice pretreated 3 consecutive weeks via tail veins, then B16F10 inoculated
Description: FIG. 4 includes photos showing that Zfra suppresses melanoma B16F10-mediated neurodegeneration in the hippocampus. Nude mice were preinjected with 100 μL, of sterile Milli-Q water or Zfra4-10 (1 mM in sterile water) in 3 consecutive weeks. After treatment for a week, these mice were inoculated with melanoma B16F10 cells on both flanks (2×10^5 cells in 100-μL, PBS). Mice were sacrificed when the tumor sizes grew up to 2000-3000 mm^3 in about a month. (A) Zfra blocked neurodegeneration in the hippocampus (top panel) and prevented the formation of TPC6AΔ plaques in the cortex (bottom panel), which negatively correlates with pS14-WWOX expression. Note the presence of condensed apoptotic nuclei in the hippocampal neurons in the control mice, (B) Metastasis of B16F10 cells to the lung was blocked in Zfra-treated mice. Compared to controls, Zfra suppressed p-S14WWOX expression in the lung by ˜72% suppression (three sections). […] (C and D) The non-spatial learning and memory were determined by novel object recognition task for both 3×Tg and Wwox+/− mice. […]
Six- to eight-week-old male nude (BALB/cAnN.Cg-Foxn1^nu/CrlNarl) mice (National Laboratory Animal Center, Taiwan) were used. […] Tumor volumes were measured daily and calculated using the equation, D×(d)^2/2, where D and d are the major and minor diameters, respectively. […] Z-cell distribution in organs was determined under fluorescence microscopy.

Substance: RRSSSCK [Zfra4-10, truncated zinc finger-like peptide, amino acids 4-10 of Zfra]
- exploring times of the novel object, short-term memory task (3×Tg mice; 3×Tg mice, 2 hours after acquisition, P=0.074): marginal, but not significant, increase
- novel object exploring times, long-term memory task (3×Tg mice; 3×Tg mice, 24 hours after acquisition, P=0.008): significantly higher
- exploring times on each object, acquisition phase (3×Tg mice; 11-month-old 3×Tg mice, one week after four weekly tail vein injections (2 mM, 100 μL), 5-minute acquisition, P>0.5): approximately equal exploring times on each object
- apoptotic nuclei [1]: 0±1%
